Entries after “also recorded” stand apart in the source; their conditions may differ.
Legend:
[1] = biological target: T1, TLR3 (Mus musculus, UniProt Q99MB1); assay: TLR3-mediated TNF-α secretion (poly I:C), ELISA; format: cell-based, murine; settings: RAW 264.7, 10 or 20 μM, poly I:C 24 hours
T1 construct: endogenous in cells; host or cells: RAW 264.7
T1 sequence (Q99MB1 26-905): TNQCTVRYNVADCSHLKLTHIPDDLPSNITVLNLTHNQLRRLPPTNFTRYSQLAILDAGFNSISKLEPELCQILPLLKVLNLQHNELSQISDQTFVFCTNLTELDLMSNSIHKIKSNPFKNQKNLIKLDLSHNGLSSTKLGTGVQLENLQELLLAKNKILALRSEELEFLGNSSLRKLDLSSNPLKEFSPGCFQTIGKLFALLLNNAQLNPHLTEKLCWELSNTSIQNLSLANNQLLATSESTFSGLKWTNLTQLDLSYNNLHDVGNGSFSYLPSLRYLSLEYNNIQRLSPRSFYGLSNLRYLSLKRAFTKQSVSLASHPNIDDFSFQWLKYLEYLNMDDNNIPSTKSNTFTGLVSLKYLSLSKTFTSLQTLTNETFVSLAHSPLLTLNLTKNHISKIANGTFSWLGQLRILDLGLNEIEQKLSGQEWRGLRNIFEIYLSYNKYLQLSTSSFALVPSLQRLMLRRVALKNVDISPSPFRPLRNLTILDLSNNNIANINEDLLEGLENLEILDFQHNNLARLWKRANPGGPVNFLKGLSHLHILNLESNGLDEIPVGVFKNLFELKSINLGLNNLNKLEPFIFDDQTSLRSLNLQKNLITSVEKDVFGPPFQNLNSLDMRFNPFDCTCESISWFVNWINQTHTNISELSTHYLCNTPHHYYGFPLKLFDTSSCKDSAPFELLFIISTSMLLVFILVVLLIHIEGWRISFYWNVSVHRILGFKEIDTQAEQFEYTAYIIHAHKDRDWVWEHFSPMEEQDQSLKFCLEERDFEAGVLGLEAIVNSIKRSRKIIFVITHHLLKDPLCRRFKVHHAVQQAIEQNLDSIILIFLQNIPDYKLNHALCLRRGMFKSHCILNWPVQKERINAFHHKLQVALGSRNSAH
Method: (§1) Agonists specific to TLR1/TLR2 (Pam3CSK4), TLR2/TLR6 (FSL-1), TLR3 (Poly I:C), TLR7 (imiquimod), and TLR8 (TL8-506) were purchased from InvivoGen Ltd. (Hong-Kong, China), and a TLR4-specific agonist (LPS from E. coli O111:B4) was purchased from Sigma-Aldrich, Inc. For TLR9-specific stimulation, class C CpG-ODN (ODN2395, 5′-TCGTCGTTTTCGGCGCGCGCCG-3′) having full phosphorothioate backbone modification was synthesized (Bioneer, Inc., Daejeon, Korea). All TLR agonists were dissolved in deionized water and applied to a culture media for TLR activation. The cells were treated with test compounds or a control medium for 1 hour, and then stimulated with a TLR agonist for 4 hours, or 24 hours in the case of poly(I:C), and the cytokine secretion was monitored.
RAW 264.7 or differentiated THP-1 cell lines were seeded onto a 96-well culture plate at a density of 2×10^4 cells/well. The cells were treated with test compounds for 1 hour followed by the stimulation with TLR agonists for 4 hours. The supernatant was transferred to pre-coated assay plates, and the secretion levels of mouse and human TNF-α were measured by respective ELISA kits (Invitrogen, Carlsbad, CA, USA). […] Absorbance was measured by a microplate reader spectrophotometer (Molecular Devices, Inc., San Jose, CA, USA), and data was interpolated from a standard curve using SoftMax Pro 5.3 software (Molecular Devices, Inc.). […]

[2] = biological target: T2, TLR9 (Mus musculus, UniProt Q9EQU3); assay: TLR9-mediated TNF-α secretion (ODN2395 stimulation), ELISA; format: cell-based, murine
T2 construct: endogenous in cells; host or cells: RAW 264.7
T2 sequence (Q9EQU3 26-1032): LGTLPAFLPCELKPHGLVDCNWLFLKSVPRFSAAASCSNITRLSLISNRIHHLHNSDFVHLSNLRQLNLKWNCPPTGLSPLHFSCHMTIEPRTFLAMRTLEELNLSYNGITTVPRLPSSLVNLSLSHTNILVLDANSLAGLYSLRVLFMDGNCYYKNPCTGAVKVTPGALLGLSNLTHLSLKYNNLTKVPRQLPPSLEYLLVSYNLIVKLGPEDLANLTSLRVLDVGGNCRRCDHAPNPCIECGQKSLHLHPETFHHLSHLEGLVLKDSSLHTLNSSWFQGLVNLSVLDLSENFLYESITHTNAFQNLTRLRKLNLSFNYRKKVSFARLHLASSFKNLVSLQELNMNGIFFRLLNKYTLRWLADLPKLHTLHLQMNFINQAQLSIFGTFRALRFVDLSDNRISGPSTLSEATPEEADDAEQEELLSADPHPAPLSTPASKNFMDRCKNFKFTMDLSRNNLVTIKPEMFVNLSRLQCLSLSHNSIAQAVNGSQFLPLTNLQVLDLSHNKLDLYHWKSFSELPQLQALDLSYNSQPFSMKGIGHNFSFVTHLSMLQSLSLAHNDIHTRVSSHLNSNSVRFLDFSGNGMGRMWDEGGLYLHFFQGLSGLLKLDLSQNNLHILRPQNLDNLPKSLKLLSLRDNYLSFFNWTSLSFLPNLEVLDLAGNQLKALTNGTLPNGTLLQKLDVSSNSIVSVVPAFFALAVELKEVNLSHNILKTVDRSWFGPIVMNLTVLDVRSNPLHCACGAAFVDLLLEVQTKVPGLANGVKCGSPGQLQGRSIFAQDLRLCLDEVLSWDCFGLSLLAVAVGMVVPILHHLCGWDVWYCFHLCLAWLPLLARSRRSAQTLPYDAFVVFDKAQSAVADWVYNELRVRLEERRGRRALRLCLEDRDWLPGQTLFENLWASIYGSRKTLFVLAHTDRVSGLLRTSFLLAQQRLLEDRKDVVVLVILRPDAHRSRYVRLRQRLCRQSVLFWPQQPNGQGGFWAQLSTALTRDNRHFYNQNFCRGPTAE
Method: as §1
RAW 264.7 or differentiated THP-1 cell lines were seeded onto a 96-well culture plate at a density of 2×10^4 cells/well. The cells were treated with test compounds for 1 hour followed by the stimulation with TLR agonists for 4 hours. The supernatant was transferred to pre-coated assay plates, and the secretion levels of mouse and human TNF-α were measured by respective ELISA kits (Invitrogen, Carlsbad, CA, USA). All experiments were performed according to the manufacturer's instructions. Absorbance was measured by a microplate reader spectrophotometer (Molecular Devices, Inc., San Jose, CA, USA), and data was interpolated from a standard curve using SoftMax Pro 5.3 software (Molecular Devices, Inc.).
In order to evaluate the antagonistic effect of each compound on TLR7/TLR9 through ELISA (enzyme-linked immunosorbent assay), RAW 264.7 cells were pretreated with the eight compounds followed by the stimulation with a TLR7-specific agonist (imiquimod, 3.61 μM) or with a TLR9-specific agonist (ODN2395, 0.5 μM). […] Since the two ligands had no agonistic effect per se (FIG. 3B), the increased cytokine production may be due to cell activation (or non-specific cellular stress) by co-treatment. Consequently, TIC10 was selected as the most suitable lead for further optimization to improve the inhibitory potency against both TLR7 and TLR9.

SMILES: COc1ccc(CNc2ncc(-c3ccc4c(c3)OCO4)n2C)c(OC)c1 [TIC10-7, 5-(2H-1,3-benzodioxol-5-yl)-N-[(2,4-dimethoxyphenyl)methyl]-1-methyl-1H-imidazol-2-amine]
- TLR3-mediated TNF-α secretion [1]: moderately reduced
- TLR9-mediated TNF-α secretion ([2]; RAW 264.7, 10 or 20 μM, ODN2395 (receptor specificity, FIG. 6)): moderately reduced
- inhibitory efficacy on TLR9-mediated TNF-α secretion ([2]; RAW 264.7, 10 or 50 μM, ODN2395 (FIG. 4A)): improved inhibitory efficacy compared to TIC10; also recorded: significant reduction
- IC50 ([2]; RAW 264.7, ODN2395 (FIG. 4C)): 6.71 µM
